Test results as given in PMC3675115, “Mycobacterium tuberculosis Rv3406 Is a Type II Alkyl Sulfatase Capable of Sulfate Scavenging” (PLoS ONE, 2013).
Structures can show the parent of a compound that is named as a salt.

Tests used:
AtsK = target: T1, AtsK (Pseudomonas putida, UniProt Q9WWU5); test: NADH/LADH coupled assay, […] nm; format: biochemical; details: alpha-ketoglutarate, Fe(II), ascorbate; 1 and 10 mM substrate
T1 construct: not described in main text (supplement File S1)

Rv3406 = Rv3406 (Mycobacterium tuberculosis, UniProt P9WKZ1); test: NADH/LADH coupled assay, […] nm; format: biochemical; details: co-substrate with 2-EHS, Fe(II), ascorbate, pH 7.5, 25 C

T1 sequence (Q9WWU5 whole entry): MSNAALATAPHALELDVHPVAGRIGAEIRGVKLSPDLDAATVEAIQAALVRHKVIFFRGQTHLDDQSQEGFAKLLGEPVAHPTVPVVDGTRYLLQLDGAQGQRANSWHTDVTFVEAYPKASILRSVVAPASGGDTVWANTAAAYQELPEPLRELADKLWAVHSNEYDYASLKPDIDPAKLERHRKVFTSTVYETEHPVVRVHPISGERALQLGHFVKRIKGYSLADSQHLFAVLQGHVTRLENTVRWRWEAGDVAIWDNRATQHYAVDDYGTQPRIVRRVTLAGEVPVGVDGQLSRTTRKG

CCCCC(CC)COS(=O)(=O)O (centres unmarked) [2-ethylhexyl sulfate]
NADH/LADH coupled assay, 340 nm (AtsK): we also tested AtsK and found 2-EHS was its preferred substrate as well

O=C(O)CCC(=O)C(=O)O [α-ketoglutarate]
NADH/LADH coupled assay, 340 nm (Rv3406): Rv3406’s activity on 2-EHS is dependent on the cosubstrate αKG
